Data published in US5438052A, “Cephalosporin derivatives” (Hoffmann-La Roche Inc., priority 1991, dated 1995).
Values after ≈ are worked out from the molar mass of the structure shown. Structures can show the parent of a compound that is named as a salt. Where two headings read alike, the source gives them in different places.

Tests used:
[1] = tested on: Pseudomonas aeruginosa BA; assay: Experimental systemic septicaemia in the mouse; assay type: in vivo; details: sc, 96 h
Experimental: (§1) 2. Experimental systemic septicaemia in the mouse
(§2) An experimental systemic septicaemia was produced in albino mice weighing 16-20 g by intraperitoneally injecting into the experimental animals a sample of a dilute culture of the test organism which had been grown overnight. The sample administered is calculated such that the dosage administered is about 5-100 times greater than the dosage which is required to kill 50% of untreated experimental animals within 48 hours. The bacteria were injected as a suspension in the culture broth. Groups of 5 experimental animals each were used not only for the control, but also for the treatment for each dosage tested. The products in accordance with the invention were administered subcutaneously as a suspension in Tween 80 (2%), whereby the concentrations were chosen such that each experimental animal received 500 μl per administration. The respective concentrations were administered twice, namely 1 and 3 hours after the infection (in the case of P. aeruginosa three times, namely 1, 3 and 5 hours after the infection). The ED50 is that dosage which protects 50% of the experimental animals and was calculated by means of the Probit method on the basis of the survial rate after 4 days following the infection. The ED50 values in mg/kg s.c. (subcutaneous) for representatives of the class of substance in accordance with the invention are given in Table 2 hereinafter.

E. coli 25922 [2] = assay: Experimental systemic septicaemia in the mouse; assay type: in vivo; details: 96 h
Experimental: as §1, §2

E. cloacae 908SSi = assay: Minimum inhibitory concentration in vitro, agar dilution method; assay type: cell-based; details: Enterobacter cloacae
Description: (§3) 1. Minimum Inhibitory Concentration in vitro
(§4) The activities ascertained, minimum inhibitory concentration (MIC) in μg/ml, are compiled in Table 1 hereinafter: […]

P. aeruginosa MK1184 = assay: as above; assay type: cell-based; details: Pseudomonas aeruginosa
Description: as §3, §4

P. mirabilis 2117 = assay: as above; assay type: cell-based; details: Proteus mirabilis
Description: as §3, §4

S. pneumoniae BA = assay: as above; assay type: cell-based; details: Streptococcus pneumoniae
Description: as §3, §4

P. aeruginosa BA = assay: as above; assay type: cell-based; details: Pseudomonas aeruginosa
Description: as §3, §4

C. freundii 902 = assay: as above; assay type: cell-based; details: Citrobacter freundii
Description: as §3, §4

S. marcescens 69438 = assay: as above; assay type: cell-based; details: Serratia marcescens
Description: as §3, §4

S. aureus 6538 = assay: as above; assay type: cell-based; details: Staphylococcus aureus
Description: as §3, §4

E. cloacae 908R = assay: as above; assay type: cell-based; details: Enterobacter cloacae
Description: as §3, §4

E. cloacae P99 = assay: as above; assay type: cell-based; details: Enterobacter cloacae
Description: as §3, §4

P. vulgaris 1028 = assay: as above; assay type: cell-based; details: Proteus vulgaris
Description: as §3, §4

E. coli 25922 [3] = assay: as above; assay type: cell-based; details: Escherichia coli
Description: as §3, §4

P. aeruginosa 799/WT = assay: as above; assay type: cell-based; details: Pseudomonas aeruginosa
Description: as §3, §4

K. oxytoca 1082 = assay: as above; assay type: cell-based; details: Klebsiella oxytoca
Description: as §3, §4

K. pneumoniae 418 = assay: as above; assay type: cell-based; details: Klebsiella pneumoniae
Description: as §3, §4

S. pyogenes 15 = assay: as above; assay type: cell-based; details: Streptococcus pyogenes
Description: as §3, §4

P. aeruginosa 27853 = assay: as above; assay type: cell-based; details: Pseudomonas aeruginosa
Description: as §3, §4

P. aeruginosa 799/61 = assay: as above; assay type: cell-based; details: Pseudomonas aeruginosa
Description: as §3, §4

E. aerogenes CF153 = assay: as above; assay type: cell-based; details: Klebsiella aerogenes; E. aerogenes CF153, agar dilution; read-out: MIC
Description: as §3, §4

[4] = E. cloacae 908SSi, agar dilution, read-out: MIC
[5] = P. aeruginosa MK1184, agar dilution, read-out: MIC
[6] = P. mirabilis 2117, agar dilution, read-out: MIC
[7] = P. aeruginosa BA, agar dilution, read-out: MIC
[8] = C. freundii 902, agar dilution, read-out: MIC
[9] = S. marcescens 69438, agar dilution, read-out: MIC
[10] = S. aureus 6538, agar dilution, read-out: MIC
[11] = E. cloacae 908R, agar dilution, read-out: MIC
[12] = P. vulgaris 1028, agar dilution, read-out: MIC
[13] = E. coli 25922, agar dilution, read-out: MIC
[14] = P. aeruginosa 799/WT, agar dilution, read-out: MIC
[15] = K. oxytoca 1082, agar dilution, read-out: MIC
[16] = K. pneumoniae 418, agar dilution, read-out: MIC
[17] = S. pyogenes 15, agar dilution, read-out: MIC
[18] = P. aeruginosa 27853, agar dilution, read-out: MIC
[19] = P. aeruginosa 799/61, agar dilution, read-out: MIC

Row | Structure (SMILES) | MIC (E. cloacae P99) | MIC (E. cloacae 908SSi; [4]) | MIC (P. aeruginosa MK1184; [5]) | MIC (P. mirabilis 2117; [6]) | MIC (P. aeruginosa BA; [7]) | MIC (C. freundii 902; [8]) | MIC (S. marcescens 69438; [9]) | MIC (S. aureus 6538; [10]) | MIC (E. cloacae 908R; [11]) | MIC (P. vulgaris 1028; [12]) | MIC (E. coli 25922 [3]; [13]) | MIC (P. aeruginosa 799/WT; [14]) | MIC (K. oxytoca 1082; [15]) | MIC (K. pneumoniae 418; [16]) | MIC (S. pyogenes 15; [17]) | MIC (P. aeruginosa 27853; [18]) | MIC (P. aeruginosa 799/61; [19]) | other results
1 | Cc1cc(SCC2=C(C(=O)[O-])N3C(=O)[C@@H](NC(=O)/C(=N\OCS(=O)(=O)c4ccc(O)c(O)c4)c4csc(N)n4)[C@H]3SC2)n2nc(CNS(=O)(=O)c3ccc(O)c(O)c3)nc2n1.[Na+] [Example 3, (6R,7R)-7-[(Z)-2-(2-amino-4-thiazolyl)-2-[[[(3,4-dihydroxyphenyl)sulphonyl]methoxy]imino]acetamido]-3-[[[2-[(3,4-dihydroxybenzenesulphonamido)methyl]-5-methyl-s-triazolo[1,5-a]pyrimidin-7-yl]thio]methyl]-8-oxo-5-thia-1-azabicyclo[4.2.0]oct-2-ene-2-carboxylic acid sodium salt (1:1)] | 0.5 µg/mL |  |  |  |  |  |  |  |  |  |  |  |  |  |  |  |  | ED50 [1]: 0.04 mg/kg; ED50 (E. coli 25922 [2]; Escherichia coli, 25922, sc): 0.1 mg/kg; MIC (E. cloacae 908SSi; 908SSI): 8 µg/mL; MIC (P. aeruginosa MK1184; MK1184): < 0.1 µg/mL; MIC (P. mirabilis 2117; 2117): < 0.1 µg/mL; MIC (S. pneumoniae BA): 2 µg/mL; MIC (P. aeruginosa BA): < 0.1 µg/mL; MIC (C. freundii 902; 902): 0.12 µg/mL; MIC (S. marcescens 69438; 69438): 0.12 µg/mL; MIC (S. aureus 6538; 6538): 32 µg/mL; MIC (E. cloacae 908R; 908R): 1 µg/mL; MIC (P. vulgaris 1028; 1028): < 0.1 µg/mL; MIC (E. coli 25922 [3]; 25922): < 0.1 µg/mL; MIC (P. aeruginosa 799/WT; 799/WT): 0.12 µg/mL; MIC (K. oxytoca 1082; 1082): 0.25 µg/mL; MIC (K. pneumoniae 418; 418): < 0.1 µg/mL; MIC (S. pyogenes 15; 15): 4 µg/mL; MIC (P. aeruginosa 27853; 27853): 0.25 µg/mL; MIC (P. aeruginosa 799/61; 799/61): < 0.1 µg/mL
2 | CC(C)(O/N=C(\C(=O)N[C@@H]1C(=O)N2C(C(=O)O)=C(CSc3nc(-c4ccccc4)ncc3-c3ccc(O)c(O)c3)CS[C@H]12)c1csc(N)n1)C(=O)NO [Example 17, (6R,7R)-7-[(Z)-2-(2-amino-4-thiazolyl)-2-[[1-(hydroxycarbamoyl)-1-methylethoxy]imino]acetamido]-3-[[[5-(3,4-dihydroxyphenyl)-2-phenyl-4-pyrimidinyl]thio]methyl]-8-oxo-5-thia-1-azabicyclo[4.2.0]oct-2-ene-2-carboxylic acid] | 16 µg/mL (≈ 20.5 µM) | 8 µg/mL (≈ 10.3 µM) | 8 µg/mL (≈ 10.3 µM) | 0.5 µg/mL (≈ 0.642 µM) | 2 µg/mL (≈ 2.57 µM) | 0.5 µg/mL (≈ 0.642 µM) | 0.5 µg/mL (≈ 0.642 µM) | > 32 µg/mL | 1 µg/mL (≈ 1.28 µM) | 0.25 µg/mL (≈ 0.321 µM) | < 0.1 µg/mL | 2 µg/mL (≈ 2.57 µM) | 2 µg/mL (≈ 2.57 µM) | 0.25 µg/mL (≈ 0.321 µM) | 0.12 µg/mL (≈ 0.154 µM) | 1 µg/mL (≈ 1.28 µM) | < 0.1 µg/mL | MIC (E. aerogenes CF153): 0.25 µg/mL (≈ 0.321 µM)
3 | Nc1nc(/C(=N/OCS(=O)(=O)c2ccc(O)c(O)c2)C(=O)N[C@@H]2C(=O)N3C(C(=O)O)=C(CS(=O)(=O)c4ccc(O)c(O)c4)CS[C@H]23)cs1 [Example 22, (6R,7R)-7-[(Z)-2-(2-amino-4-thiazolyl)-2-[[(3,4-dihydroxysulphonyl)methoxy]imino]acetamido]-3-[[(3,4-dihydroxyphenyl)sulphonyl]methyl]-8-oxo-5-thia-1-azabicyclo[4.2.0]oct-2-ene-2-carboxylic acid sodium salt] | 32 µg/mL | 16 µg/mL | > 32 µg/mL | 16 µg/mL | > 32 µg/mL | 16 µg/mL | 16 µg/mL | > 32 µg/mL | 32 µg/mL | 16 µg/mL | 8 µg/mL | 16 µg/mL | 0.5 µg/mL | 0.5 µg/mL | 16 µg/mL | 32 µg/mL | 0.25 µg/mL | ED50 ([1]; P. aeruginosa BA, albino mice, s.c. 1, 3 and 5 hours after infection, survival after 4 days, read-out: ED50): 1.8 mg/kg; ED50 (E. coli 25922 [2]; Escherichia coli, sc, E. coli 25922, albino mice, s.c. 1 and 3 hours after infection, survival after 4 days, read-out: ED50): < 0.05 mg/kg; MIC (S. pneumoniae BA; S. pneumoniae BA, agar dilution, read-out: MIC): 16 µg/mL
